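Values below derive from 48-hour exposures of cells grown in 96-well plates, with endpoints linearly interpolated between the two concentrations bracketing the appropriate inhibition level. GI50 = concentration required for 50% inhibition of growth.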 Activity calls are given as the source filed them. Rule as the data show it: active = GI50 up to about 1.1 µM and inactive = higher.
Tests used:
Test in all cases: inhibition of tumour cell growth, NCI panel, 48 h
KM12 = system: KM12
SN12C = system: SN12C
HT-29 = system: HT-29
SK-MEL-2 = system: SK-MEL-2
SNB-75 = system: SNB-75
HCT-15 = system: HCT-15
OVCAR-8 = system: OVCAR-8
HOP-62 = system: HOP-62
COLO 205 = system: COLO 205
ACHN = system: ACHN
NCI-H522 = system: NCI-H522
MDA-MB-231 = system: MDA-MB-231
DU-145 = system: DU-145
TK-10 = system: TK-10
A549 = system: A549
HOP-92 = system: HOP-92
CCRF-CEM = system: CCRF-CEM
SNB-19 = system: SNB-19
SK-MEL-5 = system: SK-MEL-5
T47D = system: T47D
OVCAR-4 = system: OVCAR-4
UACC-257 = system: UACC-257
PC-3 = system: PC-3
MDA-MB-435 = system: MDA-MB-435
BT-549 = system: BT-549
SF-295 = system: SF-295
K562 = system: K562
UO-31 = system: UO-31
NCI-H23 = system: NCI-H23
Hs-578T = system: Hs-578T
NCI-H226 = system: NCI-H226
HL-60 = system: HL-60
Malme-3M = system: Malme-3M
HCC 2998 = system: HCC 2998
CAKI-1 = system: CAKI-1
EKVX = system: EKVX
M14 = system: M14
SW-620 = system: SW-620
UACC-62 = system: UACC-62
NCI/ADR-RES = system: NCI/ADR-RES
SF-268 = system: SF-268
SF-539 = system: SF-539
LOX IMVI = system: LOX IMVI
OVCAR-5 = system: OVCAR-5
MOLT-4 = system: MOLT-4
RPMI-8226 = system: RPMI-8226
786-0 = system: 786-0
SR = system: SR
SK-OV-3 = system: SK-OV-3
IGROV-1 = system: IGROV-1
OVCAR-3 = system: OVCAR-3
MCF7 = system: MCF7
MDA-N = system: MDA-N
SK-MEL-28 = system: SK-MEL-28
RXF 393 = system: RXF 393
U-251 = system: U-251
HCT-116 = system: HCT-116
NCI-H460 = system: NCI-H460

Measured: GI50

CCOC(=O)C(NCc1ccccc1)(NC(=O)c1ccccc1)C(F)(F)F (centres undefined)
78.3 µM: HCT-15
inactive: KM12 81.5 µM | SN12C > 100 µM | HT-29 > 100 µM | SK-MEL-2 > 100 µM | SNB-75 68.1 µM | OVCAR-8 98.9 µM | HOP-62 > 100 µM | COLO 205 > 100 µM | ACHN > 100 µM | NCI-H522 35.6 µM | MDA-MB-231 21.4 µM | DU-145 > 100 µM | TK-10 > 100 µM | A549 > 100 µM | HOP-92 42.3 µM | CCRF-CEM 24.2 µM | SNB-19 > 100 µM | SK-MEL-5 84.9 µM | T47D 38.5 µM | OVCAR-4 45.3 µM | UACC-257 90.4 µM | PC-3 > 100 µM | MDA-MB-435 > 100 µM | BT-549 > 100 µM | SF-295 > 100 µM | K562 60.1 µM | UO-31 46.6 µM | NCI-H23 > 100 µM | Hs-578T > 100 µM | NCI-H226 > 100 µM | HL-60 29 µM | Malme-3M > 100 µM | HCC 2998 > 100 µM | CAKI-1 > 100 µM | EKVX 82.4 µM | M14 > 100 µM | SW-620 43.6 µM | UACC-62 > 100 µM | NCI/ADR-RES 43.3 µM | SF-268 > 100 µM | SF-539 > 100 µM | LOX IMVI 95.1 µM | OVCAR-5 > 100 µM | MOLT-4 32.3 µM | RPMI-8226 33.3 µM | 786-0 > 100 µM | SR 32.1 µM | SK-OV-3 > 100 µM | IGROV-1 > 100 µM | OVCAR-3 89.7 µM | MCF7 > 100 µM | MDA-N > 100 µM | SK-MEL-28 > 100 µM | RXF 393 64.7 µM | U-251 > 100 µM | HCT-116 > 100 µM

C[C@]12c3c4cc(NC(=O)C(=O)NCc5ccc(-c6ccccn6)nc5)cc3Oc3cc(NC(=O)C(=O)NCc5ccc(-c6ccccn6)nc5)cc(c31)OC1C=C(NC(=O)C(=O)NCc3ccc(-c5ccccn5)nc3)C=C(O4)C12 (some centres undefined)
inactive: KM12 16.3 µM | SN12C 40.9 µM | HT-29 12.1 µM | SK-MEL-2 38.7 µM | SNB-75 16.4 µM | OVCAR-8 21.9 µM | HOP-62 > 100 µM | COLO 205 23.1 µM | ACHN 14.3 µM | NCI-H522 66.5 µM | MDA-MB-231 9.59 µM | DU-145 18.8 µM | TK-10 > 100 µM | A549 86.5 µM | CCRF-CEM 16.6 µM | SNB-19 > 100 µM | SK-MEL-5 35.3 µM | T47D 26.7 µM | OVCAR-4 3.47 µM | UACC-257 52.2 µM | PC-3 61.5 µM | MDA-MB-435 97.9 µM | BT-549 > 100 µM | SF-295 25.4 µM | K562 84.9 µM | UO-31 22.3 µM | Hs-578T > 100 µM | NCI-H226 29.6 µM | NCI-H460 17.1 µM | HL-60 14.6 µM | CAKI-1 21.2 µM | EKVX 11.5 µM | M14 98.2 µM | SW-620 > 100 µM | UACC-62 24.5 µM | NCI/ADR-RES 49.7 µM | SF-268 16.8 µM | SF-539 29.3 µM | LOX IMVI 17.6 µM | OVCAR-5 > 100 µM | MOLT-4 12.6 µM | RPMI-8226 42.1 µM | 786-0 18.1 µM | SR 3.83 µM | SK-OV-3 17 µM | IGROV-1 16.9 µM | OVCAR-3 35.6 µM | MCF7 33.7 µM | MDA-N 34 µM | SK-MEL-28 95.1 µM | RXF 393 > 100 µM | U-251 84.9 µM | HCT-116 29.2 µM
27.8 µM: HCT-15

[O-][s+]1c2c(Cc3ccccc3)c(Cc3ccccc3)c1CCc1cccc(c1)CC2
inactive: KM12 12.2 µM | SN12C 16.2 µM | HT-29 11.9 µM | SK-MEL-2 17 µM | SNB-75 13 µM | OVCAR-8 13.3 µM | COLO 205 17.5 µM | ACHN 16.7 µM | NCI-H522 11.3 µM | MDA-MB-231 15.9 µM | DU-145 15.8 µM | TK-10 19.1 µM | A549 13.9 µM | HOP-92 13.4 µM | CCRF-CEM 19.6 µM | SNB-19 14.6 µM | SK-MEL-5 14.9 µM | T47D 6.68 µM | OVCAR-4 5.02 µM | UACC-257 14.1 µM | PC-3 13.3 µM | MDA-MB-435 12.9 µM | BT-549 13.8 µM | SF-295 13.2 µM | K562 11.2 µM | UO-31 12.9 µM | NCI-H23 12.7 µM | Hs-578T 18.2 µM | NCI-H226 19.1 µM | NCI-H460 13.4 µM | HL-60 16.9 µM | Malme-3M 17.1 µM | HCC 2998 14.1 µM | CAKI-1 11.9 µM | EKVX 13.2 µM | M14 14.7 µM | SW-620 24.5 µM | UACC-62 10.9 µM | NCI/ADR-RES 14.4 µM | SF-268 15.6 µM | SF-539 18.7 µM | LOX IMVI 14 µM | OVCAR-5 15.3 µM | MOLT-4 14 µM | 786-0 15.2 µM | SR 17.2 µM | SK-OV-3 10.7 µM | OVCAR-3 11.1 µM | MCF7 11.1 µM | MDA-N 14.1 µM | SK-MEL-28 20.7 µM | RXF 393 3.86 µM | U-251 13.9 µM | HCT-116 8.99 µM
12.9 µM: HCT-15

Nc1nccc(-c2c[nH]c3cc(Br)ccc23)n1 [MERIDIANIN D]
25.1 µM: HCT-15
inactive: KM12 24.2 µM | SN12C 21.7 µM | HT-29 20.3 µM | SK-MEL-2 20 µM | SNB-75 20.5 µM | OVCAR-8 35.7 µM | HOP-62 30 µM | COLO 205 18.7 µM | ACHN 19.8 µM | NCI-H522 17.7 µM | MDA-MB-231 33.2 µM | DU-145 34.5 µM | TK-10 22.3 µM | A549 15.7 µM | HOP-92 23.7 µM | CCRF-CEM 41.1 µM | SNB-19 20.7 µM | SK-MEL-5 18.9 µM | T47D 30.4 µM | OVCAR-4 48.9 µM | UACC-257 30.2 µM | PC-3 30.1 µM | MDA-MB-435 26.5 µM | BT-549 31.2 µM | SF-295 35.3 µM | K562 33.5 µM | UO-31 18.7 µM | NCI-H23 25.2 µM | Hs-578T 25.9 µM | NCI-H226 45.6 µM | NCI-H460 30 µM | HL-60 29.2 µM | Malme-3M 34.8 µM | HCC 2998 25.1 µM | CAKI-1 12.6 µM | EKVX 1.59 µM | M14 24.5 µM | SW-620 33.3 µM | UACC-62 22 µM | NCI/ADR-RES 30.8 µM | SF-268 31 µM | SF-539 32.6 µM | LOX IMVI 25.3 µM | OVCAR-5 17.5 µM | MOLT-4 24.7 µM | RPMI-8226 22.6 µM | 786-0 21.5 µM | SR 17.3 µM | SK-OV-3 29.1 µM | IGROV-1 23.7 µM | OVCAR-3 28.8 µM | MCF7 19.9 µM | MDA-N 21 µM | SK-MEL-28 30.5 µM | RXF 393 15.5 µM | U-251 30.8 µM | HCT-116 18.6 µM

— ChEMBL document CHEMBL1201862, “PubChem BioAssay data set” (2004)
